For data set [1], the system named is Co-cultures of HaCat keratinocytes and primary human melanocytes. Kind of data set: Melanin content assay (% melanin reduction) in keratinocyte + melanocyte co-cultures. The settings on record: 72 hrs treatment; melanin (405 nm) corrected for cell numbers (MC/Calcein); vs DMSO control; actives in wt % as per example; fermented oil samples diluted 1:40. The data set is classed as cell-based. As to the method: Various samples containing actives were prepared and the % melanin reduction was measured. The protocol for measuring the melanin reduction is summarized below:
Co-cultures of HaCat keratinocytes and primary human melanocytes were mixed at 40,000 each (1:1 ratio) in 1 ml of a 1:1 mix of their respective culture medium and seeded as such per well, in 12 well plates. After 24 hrs, cultures were treated with various concentrations of the test materials shown in table 1 and left undisturbed for a further period of 72 hrs. Comparative vehicle control was also set up simultaneously. For melanin estimation at the end of the 72 hrs incubation, cell viability was first determined using the Calcein AM method. Briefly, spent media was removed and cells were washed once with 0.4 ml of 1×PBS/well. Fresh 1 μM calcein-AM in PBS buffer was added to each well, including control wells without cells. Plates were covered with aluminium foil and incubated for 30 mins at 37° C. in a CO2 incubator. Calcein fluorescence was measured (excitation at 490 nm and emission at 520 nm) in a TECAN M1000 plate reader. Culture wells were drained and lysed using 1N NaOH containing 10% DMSO and placed for 1 hour at 60° C. in a shaker incubator. 100 μl of the supernatant was transferred to a 384 well plate and melanin was measured in a TECAN plate reader (405 nm filter). […]

The test system is the same in data set [2]. Description: Cell viability by the Calcein AM method in the co-cultures. Format: cell-based. The note with it: 4-HR at concentrations higher than 0.0002%, at the cellular level in invitro experiments. As to the method:
Co-cultures of HaCat keratinocytes and primary human melanocytes were mixed at 40,000 each (1:1 ratio) in 1 ml of a 1:1 mix of their respective culture medium and seeded as such per well, in 12 well plates. After 24 hrs, cultures were treated with various concentrations of the test materials shown in table 1 and left undisturbed for a further period of 72 hrs. Comparative vehicle control was also set up simultaneously. For melanin estimation at the end of the 72 hrs incubation, cell viability was first determined using the Calcein AM method. Briefly, spent media was removed and cells were washed once with 0.4 ml of 1×PBS/well. Fresh 1 μM calcein-AM in PBS buffer was added to each well, including control wells without cells. Plates were covered with aluminium foil and incubated for 30 mins at 37° C. in a CO2 incubator. Calcein fluorescence was measured (excitation at 490 nm and emission at 520 nm) in a TECAN M1000 plate reader. Culture wells were drained and lysed using 1N NaOH containing 10% DMSO and placed for 1 hour at 60° C. in a shaker incubator. 100 μl of the supernatant was transferred to a 384 well plate and melanin was measured in a TECAN plate reader (405 nm filter). Melanin content (MC) was expressed after correction for cell numbers (MC/Calcein) and represented as % melanin.

Molecules are shown by their SMILES.

For the compound `CCCCCCc1ccc(O)cc1O` [B], in data set [1], the “% melanin reduction” value is listed as 23%.

For the compound `CCCCCCc1ccc(O)cc1O` [C], in data set [1], the “% melanin reduction” value is recorded as 3%.

Turning to `CCCCCCc1ccc(O)cc1O` [Example 4-HR, 4-hexyl resorcinol], the cell viability entry in data set [2] is on record as “leads to cell viability problems”.

Values taken from patent publication US20260144739A1, “A SKIN BRIGHTENING COMPOSITION” (Conopco, Inc., d/b/a UNILEVER, priority 2022, published 2026).
